± gives the standard deviation of the averaged measurements.
test system: MCF7; experiment: HRG-induced Akt activation (dPAkt = log2 pAkt/Akt HRG-stimulated minus log2 pAkt/Akt basal) (log2 ratio difference); higher = stronger HRG-induced Akt(T308) phosphorylation; details: miRNA mimic concentration 10 nM; time after transfection 72 h; heregulin 10 ng/ml; stimulation time 1 h
Method in brief: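 MCF7 cells ([…], 96-well plates) were transfected with a library of 879 miRNA mimics at 10 nM final using Lipofectamine RNAiMax, in two biological replicates. After 72 h, cells were stimulated with 10 ng/ml heregulin-beta1 for 1 h or left unstimulated. They were fixed with 4% PFA, and phospho-Akt(T308) and total Akt were read by In-Cell Western on an Odyssey. Signals were corrected for column-wise fixation decay, and HRG-induced Akt activation is log2(pAkt/Akt) stimulated minus unstimulated, averaged over replicates.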

In order of falling “HRG-induced Akt activation (log2)” value:
1. CGCGGGUGCUUACUGACCCUU  3.25 ± 0.033
2. GUGUCUGCUUCCUGUGGGA  2.6 ± 0.069
3. UUCAUUUGGUAUAAACCGCGAUU  2.42 ± 0.062
4. UGUGUCACUCGAUGACCACUGU  2.42 ± 0.089
5. UUGAAAGGCUAUUUCUUGGUC  2.39 ± 0.036
6. CUUUUUGCGGUCUGGGCUUGC  2.31 ± 0.28
7. AUCAACAGACAUUAAUUGGGCGC  2.3 ± 0.38
8. UAAGGUGCAUCUAGUGCAGAUAG  2.27 ± 0.37
9. AUCAUAGAGGAAAAUCCACGU  2.13 ± 0.46
10. UGAGCUGCUGUACCAAAAU  2.107 ± 0.0035
11. GGCAGGUUCUCACCCUCUCUAGG  2.11 ± 0.13
12. UGGAAUGUAAGGAAGUGUGUGG  2.05 ± 0.28
13. GAAGUGUGCCGUGGUGUGUCU  2.03 ± 0.31
14. CUGGACUGAGCCGUGCUACUGG  1.98 ± 0.076
15. AUCCUUGCUAUCUGGGUGCUA  1.94 ± 0.15
16. UCUCACACAGAAAUCGCACCCGU  1.92 ± 0.12
17. AGGCAGUGUAUUGUUAGCUGGC  1.91 ± 0.036
18. CAUCAUCGUCUCAAAUGAGUCU  1.91 ± 0.32
19. AGUGAAUGAUGGGUUCUGACC  1.879 ± 0.002
20. CAGGCCAUAUUGUGCUGCCUCA  1.88 ± 0.66
21. GAUGAUGAUGGCAGCAAAUUCUGAAA  1.87 ± 0.33
22. ACUCCAGCCCCACAGCCUCAGC  1.84 ± 0.05
23. UGGGCGUAUCUGUAUGCUA  1.83 ± 0.1
24. CUCCAGAGGGAUGCACUUUCU  1.83 ± 0.3
25. AGACCCUGGUCUGCACUCUAUC  1.82 ± 0.41
26. UCAGCAAACAUUUAUUGUGUGC  1.819 ± 0.011
27. ACCACUGACCGUUGACUGUACC  1.81 ± 0.74
28. ACUCAAAACCCUUCAGUGACUU  1.79 ± 0.18
29. CCAGUGGGGCUGCUGUUAUCUG  1.78 ± 0.29
30. ACAGAUUCGAUUCUAGGGGAAU  1.75 ± 0.2
31. UAAUUGCUUCCAUGUUU  1.75 ± 0.088
32. ACAGCAGGCACAGACAGGCAGU  1.75 ± 0.28
33. ACAAAGUGCUUCCCUUUAGAGU  1.75 ± 0.12
34. AAAACGGUGAGAUUUUGUUUU  1.75 ± 0.2
35. CAAAGAAUUCUCCUUUUGGGCU  1.74 ± 0.013
36. CUGAAGUGAUGUGUAACUGAUCAG  1.727 ± 0.0053
37. GUCCCUGUUCAGGCGCCA  1.73 ± 0.15
38. CGUCUUACCCAGCAGUGUUUGG  1.73 ± 0.13
39. ACUGCCCUAAGUGCUCCUUCUGG  1.72 ± 0.1
40. AUGGAUAAGGCUUUGGCUU  1.72 ± 0.027
41. AGUGCCUGAGGGAGUAAGAGCCC  1.72 ± 0.04
42. GGGGGUCCCCGGUGCUCGGAUC  1.7 ± 0.064
43. UCAUAGCCCUGUACAAUGCUGCU  1.697 ± 0.0055
44. UCAGUAAAUGUUUAUUAGAUGA  1.671 ± 0.0072
45. UCCUUCAUUCCACCGGAGUCUG  1.66 ± 0.26
46. UCCCUGUUCGGGCGCCA  1.65 ± 0.52
47. GAAAGCGCUUCCCUUUGCUGGA  1.63 ± 0.082
48. CUACAAAGGGAAGCCCUUUC  1.62 ± 0.21
49. AUGUAUGUGUGCAUGUGCAUG  1.62 ± 0.4
50. UGUGACUGGUUGACCAGAGGGG  1.6 ± 0.2
51. AGAGGUUGCCCUUGGUGAAUUC  1.6 ± 0.19
52. UAUUCAUUUAUCCCCAGCCUACA  1.59 ± 0.22
53. AGAGCUUAGCUGAUUGGUGAAC  1.58 ± 0.27
54. UUCACCACCUUCUCCACCCAGC  1.57 ± 0.62
55. UACAGUACUGUGAUAACUGAA  1.57 ± 0.14
56. UUUGGUCCCCUUCAACCAGCUG  1.54 ± 0.13
57. UCUUGUGUUCUCUAGAUCAGU  1.53 ± 0.22
58. UGAUAUGUUUGAUAUAUUAGGU  1.52 ± 0.077
59. CAACGGAAUCCCAAAAGCAGCUG  1.51 ± 0.045
60. CUCUAGAGGGAAGCGCUUUCUG  1.51 ± 0.15
61. GAAAGCGCUUCUCUUUAGAGG  1.51 ± 0.33
62. CACUGUAGGUGAUGGUGAGAGUGGGCA  1.51 ± 0.23
63. UCUCCCAACCCUUGUACCAGUG  1.51 ± 0.26
64. AAUGACACGAUCACUCCCGUUGA  1.48 ± 0.35
65. GUCAGCGGAGGAAAAGAAACU  1.47 ± 0.037
66. UAGCACCAUUUGAAAUCAGUGUU  1.47 ± 0.15
67. CCAAUAUUACUGUGCUGCUUUA  1.45 ± 0.28
68. UCACAAUGCUGACACUCAAACUGCUGAC  1.45 ± 0.48
69. CUAUACAAUCUAUUGCCUUCCC  1.44 ± 0.43
70. GAAGGCGCUUCCCUUUGGAGU  1.41 ± 0.095
71. CACCCGUAGAACCGACCUUGCG  1.4 ± 0.22
72. AAUAAUACAUGGUUGAUCUUU  1.38 ± 0.066
73. UCCGAGCCUGGGUCUCCCUCUU  1.37 ± 0.23
74. UUUAGGAUAAGCUUGACUUUUG  1.37 ± 0.39
75. UGCCUGGGUCUCUGGCCUGCGCGU  1.29 ± 0.18
76. UACUUGGAAAGGCAUCAGUUG  1.28 ± 0.25
77. UGUCAGUUUGUCAAAUACCCCA  1.28 ± 0.73
78. UCGUACCGUGAGUAAUAAUGCG  1.27 ± 0.031
79. UUAAGACUUGCAGUGAUGUUU  1.25 ± 0.66
80. CCGUCGCCGCCACCCGAGCCG  1.23 ± 0.13
81. CUGCAAAGGGAAGCCCUUUC  1.21 ± 0.33
82. UACGUCAUCGUUGUCAUCGUCA  1.21 ± 0.51
83. AAUAUUAUACAGUCAACCUCU  1.21 ± 0.51
84. AAAAGUGCUUACAGUGCAGGUAG  1.2 ± 0.069
85. CAACAAAUCACAGUCUGCCAUA  1.2 ± 0.27
86. AACAUAGAGGAAAUUCCACGU  1.17 ± 0.5
87. UAAUACUGUCUGGUAAAACCGU  1.15 ± 0.17
88. AACGCCAUUAUCACACUAAAUA  1.14 ± 0.04
89. AGUUUUGCAGGUUUGCAUUUCA  1.13 ± 0.15
90. UGAAGGUCUACUGUGUGCCAGG  1.11 ± 0.052
91. GAAGGCGCUUCCCUUUAGAGCG  1.1 ± 0.5
92. UCAGUGCAUGACAGAACUUGG  1.09 ± 0.14
93. AGAGAAGAAGAUCAGCCUGCA  1.08 ± 0.5
94. ACCUUGCCUUGCUGCCCGGGCC  1.06 ± 0.23
95. UAUAGGGAUUGGAGCCGUGGCG  1.04 ± 0.064
96. GAGUGCCUUCUUUUGGAGCGUU  1.04 ± 0.043
97. UGAAACAUACACGGGAAACCUC  1.0374 ± 0.0008
98. AGGGAUCGCGGGCGGGUGGCGGCCU  1.03 ± 0.13
99. UCUACAAAGGAAAGCGCUUUCU  1.02 ± 0.55
100. UACUCAAAAAGCUGUCAGUCA  1.02 ± 0.51
101. UUUCAAGCCAGGGGGCGUUUUUC  0.989 ± 0.21
102. GUCCCUCUCCAAAUGUGUCUUG  0.988 ± 0.27
103. AAAAGUAAUUGCGGAUUUUGCC  0.977 ± 0.53
104. UCGGCCUGACCACCCACCCCAC  0.936 ± 0.2
105. GGAGAAAUUAUCCUUGGUGUGU  0.932 ± 0.022
106. UCAGUGCAUCACAGAACUUUGU  0.53 ± 0.045
